# What was measured:
# Test in all cases: AUC of viability dose-response curve (% viability x log10 dose units); higher = less sensitive
# Conditions in all cases: 48 h
# P12-Ichikawa = test system: P12-Ichikawa
# Outline: (§1)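 Leukemia cells adapted to each medium were seeded in 1536-well plates (500 or 1000 cells/well) and given library compounds in DMSO for 48 h at 37°C. The 11 threefold doses spanned 47 μM to 0.79 nM, and CellTiter-Glo One luminescence was normalised per plate to DMSO and cell-free wells before four-parameter log-logistic fitting on log10 dose. Area under the curve was integrated with the trapezoidal rule, scaling curves above full viability and removing curves that failed quality control.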
# NOMO1 = test system: NOMO1
# Outline: as §1
# SEM cells = test system: SEM cells
# Outline: as §1
# [1] = RPMI 5 mM glucose + 10% dialyzed FBS
Structure (SMILES),AUC of viability dose-response curve (P12-Ichikawa; HPLM + 10% dialyzed FBS),AUC of viability dose-response curve (P12-Ichikawa; RPMI 5 mM glucose + 10% FBS),AUC of viability dose-response curve (P12-Ichikawa; [1]),AUC of viability dose-response curve (NOMO1; HPLM + 10% dialyzed FBS),AUC of viability dose-response curve (NOMO1; RPMI 5 mM glucose + 10% FBS),AUC of viability dose-response curve (NOMO1; [1]),AUC of viability dose-response curve (SEM cells; HPLM + 10% dialyzed FBS),AUC of viability dose-response curve (SEM cells; RPMI 5 mM glucose + 10% FBS),AUC of viability dose-response curve (SEM cells; [1])
CN1\N=N/C2=C(N=C[N]2C1=O)C(N)=O,466,466,452,445,458,450,331,318,306
COc1cccc(Nc2c(C(N)=O)cnc3c(C)cc([S+](=O)([O-])c4cccc(C(=O)N(C)C)c4)cc23)c1,470,472,469,465,472,469,459,466,468
O=[S+]([O-])(/N=C/c1c(O)ccc2ccccc12)c1cccs1,464,465,468,443,472,455,442,428,440
Clc1ccccc1C(c1ccccc1)(c1ccccc1)n1cccn1,470,462,470,454,445,457,467,456,425

# Source: the supplement of paper PMC11451515
